Key:
[1] = molecular target: PP1 with peptides containing an RVxF sequence (Homo sapiens, UniProt P62136); conditions: in vitro; Ammosova et al. 2012, 2014; cited from earlier work
[2] = test system: CMV immediate early proteins; experiment: Expression of CMV immediate early proteins in infected cells; type: cell-based, human cytomegalovirus; conditions: FIG. 5B
PP1-cdNIPP1 interaction = molecular target: T1, PP1-cdNIPP1 interaction (Homo sapiens, UniProt P62136); experiment: Split NanoBit protein:protein interaction assay, WT PP1 with WT cdNIPP1; type: binding; conditions: FIG. 4B
T1 construct: NanoBiT large bit (LgBiT)
T1 sequence (P62136 whole entry): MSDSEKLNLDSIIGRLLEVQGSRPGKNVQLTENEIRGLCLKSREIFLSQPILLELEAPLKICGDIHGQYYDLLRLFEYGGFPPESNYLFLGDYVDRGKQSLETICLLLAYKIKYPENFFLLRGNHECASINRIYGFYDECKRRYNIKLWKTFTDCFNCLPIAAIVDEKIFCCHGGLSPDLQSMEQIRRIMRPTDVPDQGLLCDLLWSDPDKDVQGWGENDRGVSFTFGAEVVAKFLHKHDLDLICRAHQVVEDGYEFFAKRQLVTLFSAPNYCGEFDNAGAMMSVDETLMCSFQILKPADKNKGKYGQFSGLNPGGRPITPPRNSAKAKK

[3] = test system: CMV IE1, IE2 and UL32 mRNA; experiment: Viral mRNA expression by RT-qPCR in infected human foreskin fibroblasts; type: cell-based, human cytomegalovirus; conditions: fold-change compared to infected cells treated with vehicle only, FIG. 5C
PP1 = PP1 (Homo sapiens, UniProt P62136); conditions: SPR; Lin et al. 2017; read-out: KD of binding to PP1; cited from earlier work
Sequence of PP1 (P62136 whole entry): as above

[4] = molecular target: T2, PP1-cdNIPP1 RATA interaction (Homo sapiens, UniProt P62136); experiment: Split NanoBit protein:protein interaction assay, WT PP1 with RVxF-mutant cdNIPP1; type: binding; conditions: FIG. 4B, cdNIPP1 with RVxF mutation
T2 construct: NanoBiT large bit (LgBiT)
T2 sequence (P62136 whole entry): as above

CMV = experiment: Plaque assay of human foreskin fibroblasts infected with CMV; type: cell-based, human cytomegalovirus; conditions: percentage compared to untreated control, FIG. 5A

Sequence of PP1 with peptides containing an RVxF sequence (P62136 whole entry): as above

**Q.** With `CCNC(=O)NC(=O)C(C)OC(=O)c1c2c(nc3ccccc13)/C(=C/c1ccc(OC)c(OC)c1)CC2` (stereo not shown) [1E7-03] as the compound, how does the “Interaction of PP1 with peptides containing an RVxF sequence” value [1] read?
**A.** disrupted the interaction of PP1 with peptides containing an RVxF sequence

**Q.** And the “Expression of CMV immediate early proteins” value [2]?
**A.** reduced

**Q.** And the “Effect on PP1-cdNIPP1 interaction” value (PP1-cdNIPP1 interaction)?
**A.** inhibited the PP1-cdNIPP1 interaction

**Q.** What about the “Viral mRNA expression (IE1, IE2, UL32)” value [3] of the same compound?
**A.** no effect on viral transcription

**Q.** And the Kd (PP1)?
**A.** 6.2 µM

**Q.** What about the “Effect on PP1-cdNIPP1 RATA interaction” value [4] of the same compound?
**A.** did not have an effect

**Q.** What about the “Inhibition of CMV replication” value (CMV) of the same compound?
**A.** concentration-dependent inhibition of CMV replication

Source: US20240082235A1, “METHOD FOR TREATING OR INHIBITING CYTOMEGALOVIRUS INFECTION USING SMALL MOLECULES TARGETING PROTEIN PHOSPHATASE 1” (HOWARD UNIVERSITY, priority 2020, published 2024)
